Measurements from the Kinase Knowledgebase extract (Sharma et al. 2016).

Experiments:
PIK3CD (Human) = PIK3CD (Human) (UniProt O00329); assay: Assessment of PIK3CD Kinase Activity
PIK3CG (human) = PIK3CG (human) (UniProt P48736); assay: Assessment of PIK3CG Kinase Activity
PIK3CG (human), sequence (P48736 whole entry, looked up): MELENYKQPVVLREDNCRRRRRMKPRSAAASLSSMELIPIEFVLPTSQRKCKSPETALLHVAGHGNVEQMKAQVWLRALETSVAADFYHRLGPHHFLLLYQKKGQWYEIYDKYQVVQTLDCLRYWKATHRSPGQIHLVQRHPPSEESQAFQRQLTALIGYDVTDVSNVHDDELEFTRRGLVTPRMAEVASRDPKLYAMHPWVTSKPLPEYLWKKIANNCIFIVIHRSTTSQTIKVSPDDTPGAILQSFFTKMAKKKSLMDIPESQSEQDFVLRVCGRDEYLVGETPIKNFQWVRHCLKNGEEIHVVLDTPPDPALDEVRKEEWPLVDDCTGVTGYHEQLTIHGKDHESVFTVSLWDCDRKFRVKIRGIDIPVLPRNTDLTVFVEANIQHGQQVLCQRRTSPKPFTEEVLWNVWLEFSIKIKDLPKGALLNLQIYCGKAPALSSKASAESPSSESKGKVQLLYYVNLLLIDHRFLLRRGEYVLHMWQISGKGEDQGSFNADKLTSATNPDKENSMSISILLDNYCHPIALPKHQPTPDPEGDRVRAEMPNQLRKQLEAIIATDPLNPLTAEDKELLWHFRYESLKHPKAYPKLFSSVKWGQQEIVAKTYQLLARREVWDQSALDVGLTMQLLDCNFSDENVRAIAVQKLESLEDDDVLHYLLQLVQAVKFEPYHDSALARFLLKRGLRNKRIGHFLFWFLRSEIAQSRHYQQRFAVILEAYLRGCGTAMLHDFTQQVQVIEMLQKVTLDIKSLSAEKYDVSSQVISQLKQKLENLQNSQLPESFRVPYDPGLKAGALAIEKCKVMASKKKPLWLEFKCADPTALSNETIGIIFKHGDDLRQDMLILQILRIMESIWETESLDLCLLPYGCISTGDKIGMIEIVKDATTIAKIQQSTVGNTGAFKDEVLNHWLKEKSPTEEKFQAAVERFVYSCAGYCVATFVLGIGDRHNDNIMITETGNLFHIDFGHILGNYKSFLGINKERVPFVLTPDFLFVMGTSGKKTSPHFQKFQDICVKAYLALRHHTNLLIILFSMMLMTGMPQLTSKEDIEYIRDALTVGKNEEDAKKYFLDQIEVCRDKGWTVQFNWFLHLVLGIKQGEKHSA

PIK3CD (Human), sequence (O00329 whole entry, looked up): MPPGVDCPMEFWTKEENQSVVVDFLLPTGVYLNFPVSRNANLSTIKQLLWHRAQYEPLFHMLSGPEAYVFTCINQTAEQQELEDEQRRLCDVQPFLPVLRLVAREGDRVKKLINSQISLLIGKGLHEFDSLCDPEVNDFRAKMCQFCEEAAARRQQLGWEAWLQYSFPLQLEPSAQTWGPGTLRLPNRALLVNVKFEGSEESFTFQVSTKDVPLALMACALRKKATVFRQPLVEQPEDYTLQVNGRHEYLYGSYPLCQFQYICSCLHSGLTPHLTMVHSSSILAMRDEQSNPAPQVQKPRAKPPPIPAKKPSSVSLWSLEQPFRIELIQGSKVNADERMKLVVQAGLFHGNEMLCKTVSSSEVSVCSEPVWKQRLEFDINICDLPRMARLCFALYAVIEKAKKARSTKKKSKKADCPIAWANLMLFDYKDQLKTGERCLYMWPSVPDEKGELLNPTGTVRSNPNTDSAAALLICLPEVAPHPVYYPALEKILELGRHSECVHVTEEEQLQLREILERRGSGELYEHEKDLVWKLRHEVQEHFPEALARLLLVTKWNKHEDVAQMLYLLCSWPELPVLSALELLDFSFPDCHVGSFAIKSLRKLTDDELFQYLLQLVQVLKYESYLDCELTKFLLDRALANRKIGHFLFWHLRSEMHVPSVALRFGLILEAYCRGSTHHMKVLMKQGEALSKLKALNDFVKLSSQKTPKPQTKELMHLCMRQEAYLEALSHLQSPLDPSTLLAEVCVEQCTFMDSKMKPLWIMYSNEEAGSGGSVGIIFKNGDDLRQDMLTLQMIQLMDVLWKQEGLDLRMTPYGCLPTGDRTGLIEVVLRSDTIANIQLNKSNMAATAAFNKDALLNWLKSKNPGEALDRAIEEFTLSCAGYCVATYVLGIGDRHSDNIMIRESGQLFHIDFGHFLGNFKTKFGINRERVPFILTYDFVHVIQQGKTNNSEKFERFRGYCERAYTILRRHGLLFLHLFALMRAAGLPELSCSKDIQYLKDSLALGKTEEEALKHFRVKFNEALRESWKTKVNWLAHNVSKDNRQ

Row | Compound | IC50 (PIK3CD (Human)) | IC50 (PIK3CG (human))
1 | C[C@H](Nc1nc(N)ncc1C#N)c1cc2cccc(-c3ccnc(N)c3)c2c(=O)n1-c1ccccc1 | < 100 nM | < 100 nM
2 | C[C@H](Nc1nc(N)ncc1C#N)c1cc2cccc(-c3ccc(Cl)cc3)c2c(=O)n1-c1ccccc1 | < 100 nM | < 100 nM
3 | C[C@H](Nc1nc(N)ncc1C#N)c1cc2cccc(-c3cncc(C(F)(F)F)c3)c2c(=O)n1-c1ccccc1 | < 100 nM | < 100 nM
4 | COc1ncc(-c2cccc3cc([C@H](C)Nc4nc(N)ncc4C#N)n(-c4ccccc4)c(=O)c23)s1 | < 100 nM | < 100 nM
5 | Cc1cncc(-c2cccc3cc([C@H](C)Nc4nc(N)ncc4C#N)n(-c4ccccc4)c(=O)c23)c1 | < 100 nM | < 100 nM
6 | Cc1cc(-c2cccc3nc([C@H](C)Nc4nc(N)ncc4C#N)n(-c4ccccc4)c(=O)c23)ccn1 | < 100 nM | < 100 nM
7 | CCn1cc(-c2cccc3cc([C@H](C)Nc4nc(N)ncc4C#N)n(-c4ccccc4)c(=O)c23)ccc1=O | < 100 nM | < 100 nM
8 | C[C@H](Nc1nc(N)ncc1C#N)c1cc2cccc(C#CCCC(=O)N3CCCC3)c2c(=O)n1-c1ccccc1 | < 100 nM | < 100 nM
9 | C[C@H](Nc1nc(N)ncc1C#N)c1cc2cccc(-c3cccc(S(N)(=O)=O)c3)c2c(=O)n1-c1ccccc1 | < 100 nM | < 100 nM
10 | C[C@H](Nc1nc(N)ncc1C#N)c1cc2cccc(-c3ccnc(NS(C)(=O)=O)c3)c2c(=O)n1-c1ccccc1 | < 100 nM | < 100 nM
11 | C[C@H](Nc1nc(N)ncc1C#N)c1cc2cccc(-c3ccc4c(c3)OCO4)c2c(=O)n1-c1ccccc1 | < 100 nM | < 100 nM
12 | COc1ccc(-c2cccc3cc([C@H](C)Nc4nc(N)ncc4C#N)n(-c4ccccc4)c(=O)c23)cn1 | < 100 nM | < 100 nM
13 | COc1cc(-c2cccc3nc([C@H](C)Nc4nc(N)ncc4C#N)n(-c4ccccc4)c(=O)c23)ccn1 | < 100 nM | < 100 nM
14 | C[C@H](Nc1nc(N)ncc1C#N)c1cc2cccc(-c3ccc(NS(C)(=O)=O)cc3)c2c(=O)n1-c1ccccc1 | < 100 nM | < 100 nM
15 | C[C@H](Nc1nc(N)ncc1C#N)c1cc2cccc(-c3ccc(=O)n(C)c3)c2c(=O)n1-c1ccccc1 | < 100 nM | < 100 nM
16 | COc1ccc(-c2cccc3cc([C@H](C)Nc4nc(N)ncc4C#N)n(-c4ccccc4)c(=O)c23)cc1 | < 100 nM | < 100 nM
17 | C[C@H](Nc1nc(N)ncc1C#N)c1cc2cccc(-c3ccc(S(N)(=O)=O)cc3)c2c(=O)n1-c1ccccc1 | < 100 nM | < 100 nM
18 | C[C@H](Nc1nc(N)ncc1C#N)c1nc2cccc(-c3ccnnc3)c2c(=O)n1-c1ccccc1 | < 100 nM | < 100 nM
19 | COc1ncc(-c2cccc3cc([C@H](C)Nc4nc(N)ncc4C#N)n(C4CC4)c(=O)c23)cn1 | < 100 nM | 100 to 1000 nM
20 | C[C@H](Nc1nc(N)ncc1C#N)c1cc2cccc(-c3c[nH]nn3)c2c(=O)n1-c1ccccc1 | < 100 nM | < 100 nM
21 | C[C@H](Nc1nc(N)ncc1C#N)c1cc2cccc(-c3ccc(=O)n(CC4CC4)c3)c2c(=O)n1-c1ccccc1 | < 100 nM | < 100 nM
22 | C[C@H](Nc1nc(N)ncc1C#N)c1cc2cccc(-c3cnoc3)c2c(=O)n1-c1ccccc1 | < 100 nM | < 100 nM
23 | C[C@H](Nc1nc(N)ncc1C#N)c1nc2cccc(-c3cnn(C)c3)c2c(=O)n1-c1ccccc1 | < 100 nM | < 100 nM
24 | C[C@H](Nc1nc(N)ncc1C#N)c1cc2cccc(-c3cncc(F)c3)c2c(=O)n1-c1ccccc1 | < 100 nM | < 100 nM
25 | C[C@H](Nc1nc(N)ncc1C#N)c1cc2cccc(Cl)c2c(=O)n1C1CCCCC1 | < 100 nM | < 100 nM
26 | C[C@H](Nc1nc(N)ncc1C#N)c1cc2ccccc2c(=O)n1-c1ccccc1 | < 100 nM | < 100 nM
27 | Cc1cc(-c2cccc3cc([C@H](C)Nc4nc(N)ncc4C#N)n(-c4cccc(F)c4)c(=O)c23)ccn1 | < 100 nM | < 100 nM
